US20110146678A1, “PROCESS FOR IMPROVING CRYSTALLINITY” (priority 2008, published 2011)

Key:
Type in all cases: physicochemical
[1] = Aerosolisation efficiency of combination DPI formulations FP/micronized SX 500/50, NGI via Rotahaler and Cyclohaler, incl. 1 month storage; details: for % FPF under stressed storage conditions: 1 month at 25° C./75% RH; for FPF of FP compared with micronized sample: T=0, Cyclohaler; for FPF of FP compared with micronized sample / FPF of FP compared with other samples: 500/50 blend with micronized SX; for FPF of FP compared with other samples: T=0, Rotahaler
Method: The aerosolisation efficiency of samples 2, 3 and 4 of fluticasone propionate (FP) produced as described in Example 2 was assessed in combination dry powder inhaler (DPI) formulations containing micronized salmeterol xinafoate (SX) using a Rotahaler® unit dose DPI device (GSK, Ware, UK) and Cyclohaler® unit dose DPI device (TEVA Pharmaceuticals, Netherlands).
The aerosolization efficiency was evaluated in combination DPI formulations also containing micronized SX. Each combination formulation contained 0.16000 g FP (sample 2, 3 or 4), 0.02320 g SX and 3.8168 g lactose (ML001, DMV-Fonterra, Vehgel, Netherlands) and was prepared by geometric mixing. Following this, each blend was subsequently prepared using a Turbula T2F (Willy A Bachofen A G, Basel, Switzerland) at 46 rpm for 45 minutes. The blend strength of each combination formulation equated to 500 μg FP and 50 μg Salmeterol base. This matches the dose strength of Advair 500/50. A sample of Advair 500/50 was used as the micronized example. The aerolisation efficiency of four different formulations containing FP samples 2, 3, 4 or micronized FP was measured.
Following content uniformity testing, 12.5±0.5 mg of each blend was loaded into size 3 hydroxypropylmethyl cellulose capsules (HPMC, Shionogi Qualicaps S A, Basingstoke, UK). The capsules were stored at 44% RH for 24 h prior to in vitro performance testing.
Testing was performed using a Next Generation Impactor (NGI) with pre-separator, which was connected to a vacuum pump (GE Motors). Prior to testing, the pre-separator was filled with 15 ml of mobile phase and the cups of the NGI cups were coated with 1% v/v silicone oil in hexane to eliminate particle bounce.
For each experiment, two individual capsules of the same formulation were discharged into the NGI at 60 Lpm for 4 s via a Rotahaler (GSK, Ware, UK) and 90 Lpm for 2.8 s via a Cyclohaler (TEVA Pharmaceuticals, Netherlands) to ensure both devices were operated such that 4 kPa pressure drop was generated.
Additionally, blisters from a commercially available Advair 500/50 Diskus (GSK, USA) were emptied and 12.5 mg of formulation was transferred into size 3 HPMC capsules and discharged into a NGI at 60 Lpm for 4 s via a Rotahaler and at 90 Lpm for 2.8 s via a Cyclohaler.
Following aerosolization, the NGI apparatus was dismantled and the inhaler, capsules and each part of the NGI was washed down into known volumes of HPLC mobile phase. The mass of drug deposited on each part of the NGI was determined by HPLC. This protocol was repeated three times for each blend, following which, the fine particle dose (FPD) and fine particle fraction of the loaded dose (FPFLD) were determined. The FPD represented the mass of drug that was collected on stages 3-8 of the NGI.

[2] = Storage stability of FPF of binary DPI formulations at 25° C./75% RH
Method: All formulations were stored for one and three months at 25° C./75% RH. The FPF of the formulation containing micronized fluticasone propionate decreased by almost 50% after storage for one month and almost 70% after storage for three months compared to the FPF at t=0. However, the FPF of formulations containing particles prepared by the current invention were not as affected following storage in stress conditions. The FPF of sample 3 decreased 6% after storage for one month and decreased 3% after storage for three months compared to the FPF at t=0. The FPF of sample 2 decreased 7% after one months storage and 28% after three months storage compared to the FPF at t=0. There was a small yet statistically significant decrease, 29%, in the fine particle fraction of the formulation containing sample 4 which was prepared by alternative precipitation approach after one month with a decrease of 24% after 3 months storage compared to the FPF at t=0. This may be related to the planar morphology of the particles, and therefore, the particles are likely to develop greater adhesion to the lactose as result of capillary forces. It is clear that the FPF of samples 2 and 3 maintained a higher FPF than the micronized sample or sample 4 when stored for one or three months in the conditions described. The FPF of samples 2 and 3 decreased by a smaller percentage than the micronized sample when stored for one or three months in the conditions described. […] Sample 4 has a much lower FPF than samples 2 and 3 after storage for one or three months.

[3] = Surface roughness by TappingMode AFM; details: 1 μm×1 μm areas, SD in brackets; for Ra(± nm): mean surface roughness; for Rq(± nm): root mean square roughness
Method: The degree of corrugation and surface morphology of samples was quantified using AFM. The surface topography and roughness measurements of particles of this invention were investigated using a Nanoscope IIIa controller, a Multimode AFM and a J-type scanner (all DI, Santa Babara, Calif., USA). All AFM surface topography images were recorded in Tapping Mode operation, in which, imaging was conducted using TESP Olympus tips (Di, Cambridge, UK) at a scan rate of 1 Hz. Surface roughness measurements were analysed over a 1 μm×1 μm area. To quantify the variations in the surface properties of the crystal surfaces, the root-mean-squared surface roughness measurement (Rq) and the mean surface roughness (Ra) of the height deviations of the surface asperities were computed.
The surface roughness and surface area of micronized Fluticasone Propionate (FP), sample 3 of FP prepared by the current invention and sample 4 of FP, as described in Example 2, were determined using atomic force microscopy (AFM) and BET surface area analysis, respectively. The roughness of imaged areas was quantified using the mean (Ra) and root mean square (Rq) of the variations in the height of the imaged surface. Furthermore, the surface area of samples was determined by a five-point BET nitrogen adsorption analysis.
The surface topography of the FP samples was investigated with TappingMode™ atomic force microscopy (AFM) using a Multimode AFM, J-type scanner, Nanoscope IIIa controller (all from DI, Cambridge, UK) and a silicon tip (model number OMCL-AC240TS, Olympus, Japan) to image three randomly selected 1 μm×1 μm square areas on the surface of particles of each material with a resolution of 512×512 pixels and a scan rate of 1 Hz. The roughness of imaged areas was quantified using the mean (Ra) and root mean square (Rq) of the variations in the height of the imaged surface, as calculated by the AFM software using the following equations: […]
where np is the number of points in the image and yi is the distance of point i from the centre line.

[4] = storage one month at 25° C./75% RH
[5] = storage three months at 25° C./75% RH

Structure (SMILES) | % FPF under stressed storage conditions [1] | FPF of FP compared with micronized sample [1] | FPF of FP compared with other samples [1] | decrease of FPF compared to FPF at t=0 [2, 4] | decrease of FPF compared to FPF at t=0 [2, 5] | Ra(± nm) [3] | Rq(± nm) [3] | decrease of FPF compared to FPF at t=0 ([2]; storage one month at 25° C./75% RH, listed as micronized fluticasone propionate) | decrease of FPF compared to FPF at t=0 ([2]; storage three months at 25° C./75% RH, listed as micronized fluticasone propionate)
CCC(=O)O[C@]1(C(=O)SCF)[C@H](C)C[C@H]2[C@@H]3C[C@H](F)C4=CC(=O)C=C[C@]4(C)[C@@]3(F)[C@@H](O)C[C@@]21C [Sample 2, Fluticasone propionate] | not significantly affected | greater than the micronized sample | greater than sample 4 and the micronized sample | 7% | 28% |  |  |  | 
CCC(=O)O[C@]1(C(=O)SCF)[C@H](C)C[C@H]2[C@@H]3C[C@H](F)C4=CC(=O)C=C[C@]4(C)[C@@]3(F)[C@@H](O)C[C@@]21C [Sample 3, Fluticasone propionate] | not significantly affected | greater than the micronized sample | greater than sample 4 and the micronized sample | 6% | 3% | 53.79 (2.11) nm | 72.11 (1.35) nm |  | 
CCC(=O)O[C@]1(C(=O)SCF)[C@H](C)C[C@H]2[C@@H]3C[C@H](F)C4=CC(=O)C=C[C@]4(C)[C@@]3(F)[C@@H](O)C[C@@]21C [Sample 4, fluticasone propionate, reference compound] | not significantly affected | greater than the micronized sample | poor performance | 29% | 24% | 11.20 (1.55) nm | 16.52 (3.13) nm |  | 
CCC(=O)O[C@]1(C(=O)SCF)[C@H](C)C[C@H]2[C@@H]3C[C@H](F)C4=CC(=O)C=C[C@]4(C)[C@@]3(F)[C@@H](O)C[C@@]21C [micronized FP, Fluticasone Propionate] | not significantly affected |  |  |  |  | 30.97 (12.25) nm | 45.07 (11.76) nm | ~50% | ~70%
